Source: ChEMBL document CHEMBL1201862, “PubChem BioAssay data set” (2004)
Active and inactive are the calls of the source.

How the values were obtained:
[1] = molecular target: Voltage-gated inwardly rectifying potassium channel KCNH2 (Homo sapiens, UniProt Q12809); conditions: Potency;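 also: confirmatory quantitative high-throughput screen measuring inhibition of hERG channel activity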
[2] = molecular target: Photoreceptor-specific nuclear receptor (Homo sapiens, UniProt Q9Y5X4); type: functional, cell-based;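 also: CHO-S cells with Gal4-NCOR and VP16-NR2E3 two-hybrid luciferase reporter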
Photoreceptor-specific nuclear receptor, sequence (Q9Y5X4 whole entry, the tested form may be a part): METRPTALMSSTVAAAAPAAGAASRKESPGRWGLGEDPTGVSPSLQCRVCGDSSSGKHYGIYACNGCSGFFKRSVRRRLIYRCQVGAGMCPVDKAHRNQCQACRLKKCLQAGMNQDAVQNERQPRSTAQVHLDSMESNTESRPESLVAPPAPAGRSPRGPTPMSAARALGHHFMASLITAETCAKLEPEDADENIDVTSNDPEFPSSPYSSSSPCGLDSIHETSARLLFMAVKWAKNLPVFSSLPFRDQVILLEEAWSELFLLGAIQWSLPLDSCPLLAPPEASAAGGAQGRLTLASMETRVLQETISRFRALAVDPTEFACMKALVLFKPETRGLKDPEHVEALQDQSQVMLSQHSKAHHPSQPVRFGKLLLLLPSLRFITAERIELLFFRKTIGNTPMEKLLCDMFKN

[3] = molecular target: T1, Heat shock factor protein 1 (Mus musculus, UniProt P38532); test: HSF1 potentiators in luciferase reporter cells, confirmation, cell-based, NIH3T3, luminescence, dose retest (AID 435004); type: functional;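 also: stress induced by proteasome inhibitor MG132 added 30 min after compound; luciferase reporter driven by HSF1 response element in NIH3T3 cells; actives raise luminescence as potentiators of the MG132 stress response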
T1 sequence (P38532 whole entry): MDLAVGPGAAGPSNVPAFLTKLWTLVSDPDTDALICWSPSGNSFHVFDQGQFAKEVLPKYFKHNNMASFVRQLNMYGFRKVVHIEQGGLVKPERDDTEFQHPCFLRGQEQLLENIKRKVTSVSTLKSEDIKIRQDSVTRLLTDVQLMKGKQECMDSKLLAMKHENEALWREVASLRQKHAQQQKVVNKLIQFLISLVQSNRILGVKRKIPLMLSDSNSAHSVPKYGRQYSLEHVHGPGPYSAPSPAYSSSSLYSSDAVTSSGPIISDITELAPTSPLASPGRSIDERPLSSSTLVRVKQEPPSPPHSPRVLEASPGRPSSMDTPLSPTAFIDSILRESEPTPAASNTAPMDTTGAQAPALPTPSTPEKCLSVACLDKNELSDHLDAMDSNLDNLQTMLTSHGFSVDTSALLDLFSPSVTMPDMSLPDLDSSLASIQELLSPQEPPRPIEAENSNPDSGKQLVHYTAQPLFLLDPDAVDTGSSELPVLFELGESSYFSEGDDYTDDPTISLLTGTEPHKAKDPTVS

[4] = cells; type: functional, cell-based
[5] = cells; type: functional, cell-based; remark: listed apart in the source
[6] = system: INS1; test: beta cell apoptosis inhibitors, cytokine rescue, dose response, luminescence, retest (AID 449756); type: functional, cell-based; conditions: Rattus norvegicus;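 also: cell death triggered by IL-1 beta plus TNF-alpha plus IFN-gamma mixture; protective hits raise ATP signal compared with cytokine alone wells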
[7] = molecular target: T2, Type-1 angiotensin II receptor (Homo sapiens, UniProt P30556); test: AT1 receptor antagonists, dose response, selectivity assay for APJ receptor antagonist project, cell-based, uHTS hits (AID 463214); type: functional;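 also: antagonist potency against angiotensin II stimulated AT1 response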
T2 sequence (P30556 whole entry): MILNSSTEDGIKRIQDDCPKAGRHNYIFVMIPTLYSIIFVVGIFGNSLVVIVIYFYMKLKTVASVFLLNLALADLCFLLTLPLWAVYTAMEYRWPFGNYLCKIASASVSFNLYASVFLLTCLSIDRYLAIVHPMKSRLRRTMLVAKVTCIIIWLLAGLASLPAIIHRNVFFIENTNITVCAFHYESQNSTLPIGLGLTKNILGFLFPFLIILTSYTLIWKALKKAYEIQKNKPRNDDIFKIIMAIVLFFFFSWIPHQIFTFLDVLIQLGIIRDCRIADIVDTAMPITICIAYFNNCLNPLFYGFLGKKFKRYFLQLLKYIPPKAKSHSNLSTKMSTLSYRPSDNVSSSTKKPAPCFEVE

[8] = molecular target: Beta-galactosidase (Escherichia coli, UniProt Q8VNN2); test: PubChem AID 485352; type: functional
Beta-galactosidase, sequence (Q8VNN2 whole entry): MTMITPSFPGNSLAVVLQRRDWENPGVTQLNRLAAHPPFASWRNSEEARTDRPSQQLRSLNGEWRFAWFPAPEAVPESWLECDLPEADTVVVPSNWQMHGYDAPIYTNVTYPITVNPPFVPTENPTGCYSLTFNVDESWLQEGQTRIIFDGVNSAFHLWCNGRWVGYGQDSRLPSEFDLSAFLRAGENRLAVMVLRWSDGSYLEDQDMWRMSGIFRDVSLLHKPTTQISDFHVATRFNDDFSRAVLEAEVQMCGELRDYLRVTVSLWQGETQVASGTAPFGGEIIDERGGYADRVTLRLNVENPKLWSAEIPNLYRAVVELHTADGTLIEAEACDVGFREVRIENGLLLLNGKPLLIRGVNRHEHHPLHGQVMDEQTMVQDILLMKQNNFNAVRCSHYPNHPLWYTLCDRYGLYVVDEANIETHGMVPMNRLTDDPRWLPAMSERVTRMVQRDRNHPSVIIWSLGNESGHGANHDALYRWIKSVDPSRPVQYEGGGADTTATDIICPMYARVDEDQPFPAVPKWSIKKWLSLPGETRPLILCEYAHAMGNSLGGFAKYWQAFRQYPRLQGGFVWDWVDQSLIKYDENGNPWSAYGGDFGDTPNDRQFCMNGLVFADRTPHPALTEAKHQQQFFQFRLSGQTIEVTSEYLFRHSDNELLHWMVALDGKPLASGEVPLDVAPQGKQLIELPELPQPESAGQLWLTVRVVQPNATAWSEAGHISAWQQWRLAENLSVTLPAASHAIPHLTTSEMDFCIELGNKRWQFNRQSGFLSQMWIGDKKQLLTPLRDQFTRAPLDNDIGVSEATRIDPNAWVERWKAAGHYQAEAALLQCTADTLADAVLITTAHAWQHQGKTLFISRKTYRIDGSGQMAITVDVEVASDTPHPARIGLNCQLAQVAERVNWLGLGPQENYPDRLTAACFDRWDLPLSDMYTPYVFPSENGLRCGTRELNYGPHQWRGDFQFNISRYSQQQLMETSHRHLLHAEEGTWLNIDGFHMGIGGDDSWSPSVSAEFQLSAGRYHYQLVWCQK

[9] = molecular target: Cytochrome P450 2C19 (Homo sapiens, UniProt P33261); test: Cytochrome panel assay with activity outcomes. Panel member name: p450-cyp2c19 Compounds with AC50 equal or less than 10 uM are considered active; type: functional; conditions: read-out: AC50
Cytochrome P450 2C19, sequence (P33261 whole entry): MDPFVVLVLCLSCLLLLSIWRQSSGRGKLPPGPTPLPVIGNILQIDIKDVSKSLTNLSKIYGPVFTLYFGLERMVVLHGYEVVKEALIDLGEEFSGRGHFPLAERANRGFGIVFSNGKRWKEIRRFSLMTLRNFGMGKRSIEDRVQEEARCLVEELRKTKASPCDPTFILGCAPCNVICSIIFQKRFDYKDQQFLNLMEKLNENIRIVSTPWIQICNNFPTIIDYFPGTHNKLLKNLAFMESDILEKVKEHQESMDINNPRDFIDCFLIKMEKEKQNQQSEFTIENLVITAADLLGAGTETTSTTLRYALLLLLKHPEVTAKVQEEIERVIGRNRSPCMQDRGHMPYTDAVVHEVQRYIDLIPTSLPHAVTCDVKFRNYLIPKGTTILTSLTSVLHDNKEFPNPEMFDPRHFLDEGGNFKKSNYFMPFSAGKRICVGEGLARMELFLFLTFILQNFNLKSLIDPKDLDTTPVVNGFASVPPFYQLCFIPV

[10] = molecular target: Cytochrome P450 2C9 (Homo sapiens, UniProt P11712)
Cytochrome P450 2C9, sequence (P11712 whole entry): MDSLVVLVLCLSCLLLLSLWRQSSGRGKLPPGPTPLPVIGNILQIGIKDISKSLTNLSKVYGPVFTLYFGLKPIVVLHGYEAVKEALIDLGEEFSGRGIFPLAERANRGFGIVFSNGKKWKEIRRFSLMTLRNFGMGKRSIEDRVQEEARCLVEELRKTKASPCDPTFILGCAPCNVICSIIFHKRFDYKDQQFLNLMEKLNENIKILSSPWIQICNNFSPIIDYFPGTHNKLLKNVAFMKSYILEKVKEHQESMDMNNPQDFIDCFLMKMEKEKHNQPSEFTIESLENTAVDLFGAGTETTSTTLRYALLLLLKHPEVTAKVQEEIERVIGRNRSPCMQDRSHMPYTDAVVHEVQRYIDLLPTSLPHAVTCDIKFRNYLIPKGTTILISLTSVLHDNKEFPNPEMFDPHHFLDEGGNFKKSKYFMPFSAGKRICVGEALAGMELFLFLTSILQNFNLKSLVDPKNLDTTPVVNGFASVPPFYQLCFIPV

[11] = molecular target: T3, Cytochrome P450 3A4 (Homo sapiens, UniProt P08684)
T3 sequence (P08684 whole entry): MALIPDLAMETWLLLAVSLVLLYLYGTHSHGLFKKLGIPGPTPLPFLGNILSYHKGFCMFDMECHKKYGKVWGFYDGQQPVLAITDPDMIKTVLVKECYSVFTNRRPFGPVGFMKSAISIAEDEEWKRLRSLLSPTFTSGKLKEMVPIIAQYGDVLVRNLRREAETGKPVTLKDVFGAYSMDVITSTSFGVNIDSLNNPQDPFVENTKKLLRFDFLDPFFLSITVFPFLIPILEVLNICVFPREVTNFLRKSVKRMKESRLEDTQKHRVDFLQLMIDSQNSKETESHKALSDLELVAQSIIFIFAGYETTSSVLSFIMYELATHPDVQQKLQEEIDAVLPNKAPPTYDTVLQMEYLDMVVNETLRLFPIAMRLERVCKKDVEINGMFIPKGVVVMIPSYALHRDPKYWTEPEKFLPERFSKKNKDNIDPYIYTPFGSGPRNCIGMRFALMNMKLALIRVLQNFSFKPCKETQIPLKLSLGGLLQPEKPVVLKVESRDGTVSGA

[12] = molecular target: T4, Adenosylmethionine-8-amino-7-oxononanoate aminotransferase (Mycobacterium tuberculosis, UniProt P9WQ81); test: Mycobacterium tuberculosis BioA enzyme inhibitor Measured in Biochemical System Using Plate Reader - 2163-02_Inhibitor_Dose_CherryPick_Activity.; type: functional, Mycobacterium tuberculosis UT205
T4 sequence (P9WQ81 whole entry): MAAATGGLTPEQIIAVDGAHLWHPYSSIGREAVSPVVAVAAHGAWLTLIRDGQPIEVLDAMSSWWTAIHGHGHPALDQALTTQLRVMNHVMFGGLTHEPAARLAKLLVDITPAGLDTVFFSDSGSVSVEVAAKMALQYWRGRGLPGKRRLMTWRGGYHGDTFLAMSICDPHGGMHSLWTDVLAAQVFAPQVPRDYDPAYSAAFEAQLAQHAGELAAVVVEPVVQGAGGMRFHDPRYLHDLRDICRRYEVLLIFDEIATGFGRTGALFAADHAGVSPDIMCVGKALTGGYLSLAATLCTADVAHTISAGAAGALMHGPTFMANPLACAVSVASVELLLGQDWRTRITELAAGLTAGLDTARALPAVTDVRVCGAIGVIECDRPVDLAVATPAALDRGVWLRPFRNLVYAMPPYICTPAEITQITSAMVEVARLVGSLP

[13] = molecular target: T5, Cytochrome P450 1A2 (Homo sapiens, UniProt P05177);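 also: PubChem cytochrome P450 panel assay, CYP1A2 panel member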
T5 sequence (P05177 whole entry): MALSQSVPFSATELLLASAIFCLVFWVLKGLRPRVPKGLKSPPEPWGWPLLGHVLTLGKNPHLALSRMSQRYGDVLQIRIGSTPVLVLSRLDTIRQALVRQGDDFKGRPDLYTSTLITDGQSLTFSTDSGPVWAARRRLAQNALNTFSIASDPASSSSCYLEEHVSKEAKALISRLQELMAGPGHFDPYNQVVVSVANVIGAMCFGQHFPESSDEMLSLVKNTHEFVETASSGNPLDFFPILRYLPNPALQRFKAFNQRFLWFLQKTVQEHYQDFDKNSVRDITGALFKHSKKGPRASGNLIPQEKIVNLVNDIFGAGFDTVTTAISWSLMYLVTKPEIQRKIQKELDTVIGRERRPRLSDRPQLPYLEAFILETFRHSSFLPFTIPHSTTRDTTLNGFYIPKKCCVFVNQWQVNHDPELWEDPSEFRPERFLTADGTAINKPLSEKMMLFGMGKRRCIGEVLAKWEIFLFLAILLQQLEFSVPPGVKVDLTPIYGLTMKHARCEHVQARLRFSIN

[14] = system: Streptococcus sp. 'group A'; test: growth inhibition of control SK(-) GAS strain, dose response, counter-screen for streptokinase expression inhibitor project, luminescence, kanamycin, BacTiterGlo, confirmation (AID 1900); type: functional, organism-based
[15] = molecular target: T6, Streptokinase A (Streptococcus pyogenes serotype M1, UniProt P10520); test: S. pyogenes streptokinase expression inhibitors, potency, dose response, plasminogen activation absorbance, OD405 (AID 1914); type: functional, Streptococcus pyogenes M1 GAS;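 also: secreted streptokinase activity via plasminogen activation per viability signal from cell pellet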
T6 sequence (P10520 whole entry): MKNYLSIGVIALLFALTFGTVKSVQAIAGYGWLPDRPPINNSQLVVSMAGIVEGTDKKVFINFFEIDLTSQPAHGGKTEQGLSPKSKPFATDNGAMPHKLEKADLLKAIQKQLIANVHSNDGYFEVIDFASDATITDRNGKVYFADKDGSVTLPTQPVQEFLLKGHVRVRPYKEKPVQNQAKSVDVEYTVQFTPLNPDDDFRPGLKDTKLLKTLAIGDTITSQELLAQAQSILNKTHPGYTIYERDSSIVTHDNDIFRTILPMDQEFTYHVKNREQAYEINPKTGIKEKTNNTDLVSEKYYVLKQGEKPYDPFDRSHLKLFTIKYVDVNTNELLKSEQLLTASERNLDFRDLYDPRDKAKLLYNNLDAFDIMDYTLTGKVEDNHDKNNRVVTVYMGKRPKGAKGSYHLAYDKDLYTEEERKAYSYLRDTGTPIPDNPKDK

[16] = system: Streptococcus; test: Group A Streptococcus viability loss, dose response, counter-screen for streptokinase expression inhibitor project, luminescence, BacTiterGlo (AID 1915); type: functional, organism-based;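 also: potency for reduction of bacterial viability or growth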
[17] = system: Escherichia coli; test: microbe, parasite or virus in culture
[18] = cytotoxicity toward NIH3T3 fibroblasts, dose response, counter-screen, cell-based, ATP luminescence, mouse fibroblasts (AID 2010); type: functional;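 also: cells exposed to compound for about 90 hours before reading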
[19] = inhibitors of intracellular T. cruzi replication, confirmation, NIH3T3 host cells, beta-gal luminescence (AID 2044); type: functional, cell-based;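 also: intracellular parasites grown in NIH/3T3 mouse fibroblasts as host cells; luminescent beta-galactosidase reporter signal from transgenic T. cruzi replicating inside host cells; inhibitors lower the luminescence signal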
[20] = molecular target: 72 kDa type IV collagenase (Homo sapiens, UniProt P08253); test: Dose Response validation of uHTS RPN11 inhibitor hits using a MMP-2 Fluorescence assay.; type: functional
[21] = molecular target: 26S proteasome non-ATPase regulatory subunit 14 (Homo sapiens, UniProt O00487); test: inhibition of proteasome subunit RPN11 – biochemical, fluorescence polarization, uHTS hits, confirmation (AID 602368); type: functional
[22] = molecular target: Induced myeloid leukemia cell differentiation protein Mcl-1 (Homo sapiens, UniProt Q07820); type: functional
Induced myeloid leukemia cell differentiation protein Mcl-1, sequence (Q07820 whole entry): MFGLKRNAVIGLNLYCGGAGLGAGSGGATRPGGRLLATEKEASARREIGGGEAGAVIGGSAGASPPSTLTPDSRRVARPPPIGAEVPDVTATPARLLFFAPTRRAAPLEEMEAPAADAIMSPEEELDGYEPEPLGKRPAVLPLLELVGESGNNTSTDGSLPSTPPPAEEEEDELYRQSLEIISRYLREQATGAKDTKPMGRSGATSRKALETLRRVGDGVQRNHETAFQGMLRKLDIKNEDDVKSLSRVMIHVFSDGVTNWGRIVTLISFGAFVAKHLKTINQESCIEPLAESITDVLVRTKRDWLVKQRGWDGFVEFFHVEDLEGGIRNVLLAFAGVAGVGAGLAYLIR

[23] = molecular target: Prothrombin (Bos taurus, UniProt P00735); test: thrombin inhibition, dose response, biochemical, fluorescence polarization, uHTS hits (AID 602369); type: functional
[24] = system: Vero; test: cells; type: functional, cell-based; conditions: Chlorocebus sabaeus
[25] = HEp-2 cell cytotoxicity, dose response, cytotoxicity control for RSV inhibitor project, HTS (AID 2410); type: functional; conditions: human respiratory syncytial virus
[26] = molecular target: Glucose-6-phosphate 1-dehydrogenase (Homo sapiens, UniProt P11413); test: human G6PD enzyme inhibitors, dose response, selectivity assay for P. falciparum G6PD inhibitor project, biochemical, fluorescence (AID 504792); type: functional
Glucose-6-phosphate 1-dehydrogenase, sequence (P11413 whole entry): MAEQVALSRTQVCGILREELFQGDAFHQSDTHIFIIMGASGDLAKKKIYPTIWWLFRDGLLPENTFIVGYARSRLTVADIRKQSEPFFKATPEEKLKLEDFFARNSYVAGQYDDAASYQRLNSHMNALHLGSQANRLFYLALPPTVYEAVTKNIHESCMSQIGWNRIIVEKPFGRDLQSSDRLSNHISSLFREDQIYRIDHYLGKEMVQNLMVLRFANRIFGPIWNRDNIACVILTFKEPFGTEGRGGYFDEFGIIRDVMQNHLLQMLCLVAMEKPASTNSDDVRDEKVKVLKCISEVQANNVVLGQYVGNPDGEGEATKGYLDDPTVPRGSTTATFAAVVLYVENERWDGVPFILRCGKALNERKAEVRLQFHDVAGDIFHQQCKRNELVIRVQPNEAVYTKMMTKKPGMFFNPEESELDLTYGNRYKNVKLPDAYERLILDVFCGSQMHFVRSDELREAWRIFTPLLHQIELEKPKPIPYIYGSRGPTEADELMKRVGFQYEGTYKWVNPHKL

[27] = molecular target: Large T antigen (Simian virus 40, UniProt P03070); type: functional, Betapolyomavirus macacae;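 also: Confirmatory-stage PubChem screen for compounds that inhibit SV40 T antigen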
[28] = molecular target: T3, Cytochrome P450 3A4; conditions: Potency

Voltage-gated inwardly rectifying potassium channel KCNH2, sequence (Q12809 whole entry, the tested form may be a part): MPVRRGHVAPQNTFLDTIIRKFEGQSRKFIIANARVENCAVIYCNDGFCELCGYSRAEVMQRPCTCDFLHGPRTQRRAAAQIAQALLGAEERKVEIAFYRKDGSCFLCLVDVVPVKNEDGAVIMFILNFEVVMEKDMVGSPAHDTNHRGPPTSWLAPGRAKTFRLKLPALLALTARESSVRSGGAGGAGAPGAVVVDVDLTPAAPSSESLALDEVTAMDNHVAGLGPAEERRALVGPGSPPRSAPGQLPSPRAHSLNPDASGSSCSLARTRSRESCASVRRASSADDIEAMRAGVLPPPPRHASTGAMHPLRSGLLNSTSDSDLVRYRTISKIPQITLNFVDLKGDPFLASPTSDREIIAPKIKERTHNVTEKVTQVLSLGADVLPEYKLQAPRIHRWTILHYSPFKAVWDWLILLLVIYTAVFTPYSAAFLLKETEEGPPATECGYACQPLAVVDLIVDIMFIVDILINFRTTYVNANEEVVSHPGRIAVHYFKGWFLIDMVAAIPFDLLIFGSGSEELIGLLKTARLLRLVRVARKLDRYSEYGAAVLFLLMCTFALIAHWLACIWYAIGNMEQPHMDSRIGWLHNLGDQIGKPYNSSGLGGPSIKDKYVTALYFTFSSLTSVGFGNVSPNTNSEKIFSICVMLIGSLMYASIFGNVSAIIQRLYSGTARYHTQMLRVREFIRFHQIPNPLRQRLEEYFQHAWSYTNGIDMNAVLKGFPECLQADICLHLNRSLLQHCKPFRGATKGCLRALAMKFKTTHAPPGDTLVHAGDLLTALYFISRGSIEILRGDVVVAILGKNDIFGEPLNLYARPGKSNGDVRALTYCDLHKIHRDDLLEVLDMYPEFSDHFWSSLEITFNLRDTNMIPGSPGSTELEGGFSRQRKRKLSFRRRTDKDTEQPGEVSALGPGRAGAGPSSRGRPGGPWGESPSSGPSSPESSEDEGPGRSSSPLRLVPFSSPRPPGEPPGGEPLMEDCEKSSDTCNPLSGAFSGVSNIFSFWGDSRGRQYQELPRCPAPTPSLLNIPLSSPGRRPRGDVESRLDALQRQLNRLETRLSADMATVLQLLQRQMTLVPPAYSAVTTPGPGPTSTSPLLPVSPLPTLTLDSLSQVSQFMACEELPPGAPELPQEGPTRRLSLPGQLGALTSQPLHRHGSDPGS

In the case of c1ccc2c(N3CCNCC3)cccc2c1, the AC50 [1] is reported as 35.5 µM (inconclusive).
With N#C/C(=C\c1ccc(Sc2nc3ccccc3[nH]2)o1)c1ccccc1 the IC50 [2] was 4.69 µM (active) and the EC50 [3] was 23.6 µM (active).
In the case of O=C(Nc1nc(-c2ccccn2)cs1)c1cc(Cl)ccc1[N+](=O)[O-], the EC50 [4] is reported as > 350 µM (not active), the EC50 [5] is reported as 9.68 µM (active) and the AC50 [6] is reported as 1.06 µM (active). For the same compound, the IC50 [7] was 5.37 µM (active) and the EC50 [8] was > 40 µM (inactive).
For CC(C(=O)OCC(=O)c1cccc([N+](=O)[O-])c1)N1C(=O)C2C3C=CC(C3)C2C1=O (stereo unspecified), the IC50 [7] was > 40 µM (not active) and the EC50 [8] was > 40 µM (inactive).
For COc1ccc(C(=O)Nc2ccc(F)cc2F)cc1OC, the AC50 [9] was 39.8 µM (inconclusive), the AC50 [10] was “inconclusive” and the AC50 [11] was 25.1 µM (inconclusive).
With COC(=O)c1c(C(=O)OC)c(-c2ccccc2)n2c1C[S+]([O-])C2 (stereo unspecified) the AC50 [12] was 4.67 µM (active).
For COC(=O)C1=C(C)N(Cc2ccccc2)C(=NCC(C)C)N[C@H]1c1cccc(F)c1, the IC50 [7] was > 40 µM (not active) and the EC50 [8] was > 40 µM (inactive).
For O=c1c(-c2ccc(Cl)cc2)nc2cnc(N3CCOCC3)nc2n1-c1ccccc1, the AC50 [10] was “inconclusive” and the AC50 [13] was 2 µM (inconclusive).
With CCOc1ccc(CCNC(=O)c2cccnc2N2CCCC2)cc1OCC the IC50 [7] was > 40 µM (not active) and the EC50 [8] was > 40 µM (inactive).
For Cc1c(C(=O)Nc2ccc(Oc3ccccc3)cc2)sc2nc3n(c(=O)c12)CCC3, the EC50 [14] was 6.66 µM (active), the IC50 [2] was 2.78 µM (active) and the EC50 [15] was 39 µM (active). For the same compound, the EC50 [16] was > 150 µM (not active).
In the case of CCCCCCc1ccc(-c2ccc(C#N)cc2)cc1, the AC50 [1] is reported as 6.31 µM (inconclusive).
In the case of COc1ccc(OC)c(NC(=O)CSc2nnnn2-c2ccc3c(c2)OCO3)c1, the IC50 [2] is reported as 0.24 µM (active).
With O=S(=O)(NC1CCCCC1)c1ccc(Cl)s1 the AC50 [17] was 115 µM (active).
In the case of N=C1N=C(N)c2cc3ccccc3cc21, the AC50 [1] is reported as 28.2 µM (inconclusive).
With CC(Oc1ccc2c(-c3ccccc3)cc(=O)oc2c1)C(=O)NCCCN1CCOCC1 (stereo unspecified) the AC50 [17] was 62.1 µM (active).
For Cc1nc2nc(SCC(=O)N3CCOCC3)nn2c(C)c1Cc1c(F)cccc1Cl, the AC50 [12] was 0.217 µM (active).
With CCC(Sc1nc(C)cc(=O)[nH]1)C(=O)Nc1sc2c(c1C#N)CCCC2 (stereo unspecified) the IC50 [2] was 5.4 µM (active).
In the case of CCOC(=O)c1c(C)[n+](-c2ccc(C)cc2)c(CC)c2cc(OC)c(OC)cc12, the AC50 [12] is reported as 4.21 µM (active), the EC50 [18] is reported as > 60 µM (not active) and the EC50 [19] is reported as 0.292 µM (active).
For Cc1ccc(NC(=O)C2CCN(S(=O)(=O)c3c(C)n[nH]c3C)CC2)nc1, the AC50 [9] was 39.8 µM (inconclusive) and the AC50 [10] was “inconclusive”.
In the case of CS(=O)(=O)C1=NSC2=NC(=O)/C(=C\c3cccn3-c3ccccc3Cl)C(=N)N21, the IC50 [20] is reported as > 100 µM (inactive), the IC50 [21] is reported as 30 µM (active) and the IC50 [22] is reported as 4.35 µM (active). For the same compound, the IC50 [23] was 52.6 µM (active).
With O=c1c2cccnc2[nH]c(=S)n1CCCN1CCN(c2ccccc2F)CC1 the IC50 [24] was 24.6 µM (active).
In the case of CCOC(=O)c1c(N/C=C(\C#N)c2nc(-c3ccc(OC(C)=O)cc3)cs2)sc2c1CCC2, the AC50 [17] is reported as 12.3 µM (active).
In the case of C=CCNc1ccccc1S(=O)(=O)NCc1ccccc1, the AC50 [17] is reported as > 150 µM (inactive).
In the case of COC(=O)C[C@@H]1C[C@@H]2c3cc(NC(=O)c4cccnc4)ccc3O[C@@H]2[C@@H](CO)O1, the AC50 [12] is reported as 13.6 µM (active).
With CCc1ccc(OCC(=O)N/N=C/c2cc([N+](=O)[O-])ccc2N2CCOCC2)cc1 the CC50 [25] was > 50 µM (active) and the IC50 [26] was > 80 µM (inactive).
In the case of O=c1onc2n1-c1cc(Br)ccc1OC2, the AC50 [11] is reported as 20 µM (inconclusive) and the AC50 [1] is reported as 5.62 µM (inconclusive).
For O=C(O)/C=C/c1ccc(O)c(O)c1 [CAFFEIC ACID], the IC50 [27] was 7.3 µM (active), the AC50 [28] was 25.1 µM (inconclusive) and the AC50 [1] was 2.51 µM (inconclusive).
